The results in this text go back to ChEMBL document CHEMBL2046335, “Synthesis and discovery of N-carbonylpyrrolidine- or N-sulfonylpyrrolidine-containing uracil derivatives as potent human deoxyuridine triphosphatase inhibitors” (J Med Chem, 2012).

For assay [1], the target named is T1, Deoxyuridine 5'-triphosphate nucleotidohydrolase, mitochondrial (Homo sapiens, UniProt P33316).
T1 sequence (P33316 whole entry): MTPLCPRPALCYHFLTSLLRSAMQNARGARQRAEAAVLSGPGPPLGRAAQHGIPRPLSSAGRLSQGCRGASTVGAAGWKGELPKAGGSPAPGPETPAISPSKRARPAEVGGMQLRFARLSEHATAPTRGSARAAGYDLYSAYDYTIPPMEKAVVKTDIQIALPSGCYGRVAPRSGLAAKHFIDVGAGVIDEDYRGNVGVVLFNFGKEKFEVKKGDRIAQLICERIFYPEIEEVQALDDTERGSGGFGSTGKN
Briefly: Inhibition of human dUTPase using [5-3H]dUTP as substrate after 15 mins by HPLC analysis.

Assay [2] is described as follows: Antiproliferative activity against human HeLaS3 cells after 72 hrs by crystal violet assay. The class given is functional, cell-based. The following applies: HeLa S3, 72 h.
Assay [3] in a line: Potentiation of antiproliferative activity of FdUrd against human HeLaS3 cells assessed as reduction in FdUrd T/C value by half after 24 hrs by crystal violet assay. The class given is functional, cell-based. The following applies: HeLa S3, 24 h.
A short description of assay [4]: Competitive inhibition of Escherichia coli dUTPase.
Assay [5] deals with T1, Deoxyuridine 5'-triphosphate nucleotidohydrolase, mitochondrial. Briefly: Inhibition of human dUTPase.

The structures appear in SMILES notation.

As a reminder, the IC50 is the concentration needed to halve the response being measured. The compound `O=C(CCCn1ccc(=O)[nH]c1=O)N1CCC[C@H]1C(O)(c1cccc(-c2ccsc2)c1)c1cccc(-c2ccsc2)c1` gave an IC50 in assay [1] of 230 nM. `CC(C)(C)CC(C)(C)NC(=O)CCCn1ccc(=O)[nH]c1=O` displayed an IC50 in assay [1] of 30000 nM.

The term EC50 denotes the concentration needed to bring the measured effect to its halfway point. `O=c1ccn(CCCS(=O)(=O)N2CCC[C@@H]2C(O)(c2ccccc2)c2ccccc2)c(=O)[nH]1`: half-maximal inhibition in assay [1] (IC50) required 320 nM. The EC50 in assay [2] is > 100000 nM; in assay [3], 300 nM.

Regarding `O=C(CCn1ccc(=O)[nH]c1=O)NC(c1ccccc1)c1ccccc1`, the IC50 in assay [1] is > 30000 nM. The same measure, in the same setting: the value for `CC(C)(NC(=O)CCn1ccc(=O)[nH]c1=O)C(O)(c1ccccc1)c1ccccc1` was 7300 nM; that for `CC(C)(Cc1ccc2ccccc2c1)NC(=O)CCCn1ccc(=O)[nH]c1=O` was > 30000 nM; that for `O=C(CCCn1ccc(=O)[nH]c1=O)Nc1ccccc1` was > 30000 nM. Same read-out and setting: the value for `O=C(CCn1ccc(=O)[nH]c1=O)N1CCC(Cc2ccccc2)CC1` was > 30000 nM; that for `COc1cccc(C(O)(c2cccc(OC)c2)[C@@H]2CCCN2C(=O)CCCn2ccc(=O)[nH]c2=O)c1` was > 1000 nM; that for `O=C(CCCn1ccc(=O)[nH]c1=O)N1CCC[C@H]1C(c1ccccc1)c1ccccc1` was 150 nM. Regarding `CC(C)(Cc1ccccc1)NC(=O)CCCn1ccc(=O)[nH]c1=O`, in assay [1], the IC50 is > 30000 nM. Same read-out and setting: as for `O=C(CCn1ccc(=O)[nH]c1=O)NCC(c1ccccc1)c1ccccc1`, the figure is > 30000 nM. Regarding `COc1ccccc1C(O)(c1ccccc1OC)[C@H]1CCCN1S(=O)(=O)CCCn1ccc(=O)[nH]c1=O`, in assay [1], the 50% inhibitory concentration (IC50) was > 1000 nM. As to `CC(C)(C)NC(=O)CCn1ccc(=O)[nH]c1=O`, the IC50 in assay [1] is > 30000 nM. For `O=C(CCn1ccc(=O)[nH]c1=O)NCCC(c1ccccc1)c1ccccc1`, in assay [1], the IC50 was > 30000 nM. On the same count and under the same terms, the value for `O=C(CCCn1ccc(=O)[nH]c1=O)NCc1ccccc1` was > 30000 nM; that for `O=C(CCCn1ccc(=O)[nH]c1=O)NC(c1ccccc1)c1ccccc1` was > 30000 nM; that for `COc1ccc(C(O)(c2ccc(OC)cc2)[C@@H]2CCCN2C(=O)CCCn2ccc(=O)[nH]c2=O)cc1` was > 1000 nM.

For the compound `CC(C)(CO)NC(=O)CCCn1ccc(=O)[nH]c1=O`, in assay [1], the IC50 was > 30000 nM. The Ki is the equilibrium dissociation constant of an inhibitor or competing ligand from its target. Low readings indicate a stronger hold on the target, high ones a looser hold on the target. As for `O=c1ccn([C@H]2C[C@H](O)[C@@H](COP(=O)(O)NP(=O)(O)OP(=O)(O)O)O2)c(=O)[nH]1`, 15000 nM corresponded to half-maximal inhibition in assay [1] (IC50). In assay [4], this compound yielded a Ki of 5000 nM. Consider `COc1ccccc1C(O)(c1ccccc1OC)[C@@H]1CCCN1C(=O)CCCn1ccc(=O)[nH]c1=O`, for which the IC50 in assay [1] was > 1000 nM.

In assay [1], `CC(C)(CCc1ccccc1)NC(=O)CCCn1ccc(=O)[nH]c1=O` gave an IC50 of 21000 nM. Consider `CC(C)(C)NC(=O)CCCn1ccc(=O)[nH]c1=O`, for which inhibition in assay [1] was half-maximal at 97000 nM (IC50). On the same count and under the same terms, as for `O=C(CCn1ccc(=O)[nH]c1=O)N(Cc1ccccc1)Cc1ccccc1`, the figure is > 30000 nM; as for `O=C(CCCn1ccc(=O)[nH]c1=O)N1CCC[C@H]1C(O)(c1ccc(F)cc1)c1ccc(F)cc1`, 600 nM. `O=C(CCCn1ccc(=O)[nH]c1=O)N1CCC[C@H]1C(O)(c1ccccc1)c1ccccc1`: the IC50 in assay [1] is 290 nM. Also, the EC50 in assay [2] is > 100000 nM; in assay [3], 270 nM. Compound `CCC(CC)(CC)NC(=O)CCn1ccc(=O)[nH]c1=O` gave an IC50 in assay [1] of 22000 nM.

For `O=C(CCCn1ccc(=O)[nH]c1=O)N1CCC[C@H]1C(O)(c1ccc(Cl)cc1)c1ccc(Cl)cc1`, in assay [1], the IC50 is > 1000 nM. Turning to `CCC(CC)(CC)NC(=O)CCCn1ccc(=O)[nH]c1=O`, the IC50 in assay [1] is > 30000 nM. Still for that read-out and setting: the value for `O=c1ccn(CCCS(=O)(=O)N2CCC[C@@H]2C(O)(c2ccc(F)cc2)c2ccc(F)cc2)c(=O)[nH]1` was 310 nM; that for `O=C(CCn1ccc(=O)[nH]c1=O)N1CCC[C@H]1C(O)(c1ccccc1)c1ccccc1` was > 1000 nM.

In turn, `O=c1ccn(CCCS(=O)(=O)N2CCC[C@@H]2C(O)(c2cccc(F)c2)c2cccc(F)c2)c(=O)[nH]1` gave an IC50 in assay [1] of 280 nM.

Turning to `O=C(CCCn1ccc(=O)[nH]c1=O)N1CCC[C@H]1C(O)(c1cccc(Cl)c1)c1cccc(Cl)c1`, inhibition in assay [1] was half-maximal at 580 nM (IC50). `O=c1ccn([C@H]2C[C@H](O)[C@@H](COP(=O)(O)CP(=O)(O)OP(=O)(O)OCc3ccccc3)O2)c(=O)[nH]1` came in with a Ki in assay [5] of 300 nM. `CC(C)(NC(=O)CCCn1ccc(=O)[nH]c1=O)C(O)(c1ccccc1)c1ccccc1`: the IC50 in assay [1] was determined as 2500 nM. The EC50 was > 100000 nM in assay [2] and 3000 nM in assay [3]. `CN(CC(O)(c1ccccc1)c1ccccc1)C(=O)CCCn1ccc(=O)[nH]c1=O` yielded an IC50 in assay [1] of 1100 nM. That is a single-digit micromolar value. In the case of `O=C(CCCn1ccc(=O)[nH]c1=O)N1CCC[C@H]1C(O)(c1cccc(F)c1)c1cccc(F)c1`, the IC50 in assay [1] came out at 350 nM.

Regarding `O=C(CCCn1ccc(=O)[nH]c1=O)N1CCC[C@@H]1C(O)(c1ccccc1)c1ccccc1`, it took 10000 nM to reach half-maximal inhibition in assay [1] (IC50). In the case of `CN(CC(c1ccccc1)c1ccccc1)C(=O)CCCn1ccc(=O)[nH]c1=O`, it took 1300 nM to reach half-maximal inhibition in assay [1] (IC50). Further, the EC50 is > 100000 nM in assay [2] and 1200 nM in assay [3]. As to `COc1cccc(C(O)(c2cccc(OC)c2)[C@H]2CCCN2S(=O)(=O)CCCn2ccc(=O)[nH]c2=O)c1`, the IC50 in assay [1] is > 1000 nM.

On to `O=c1ccn(CCCS(=O)(=O)N2CCC[C@H]2C(O)(c2ccccc2)c2ccccc2)c(=O)[nH]1`, for which, in assay [1], the IC50 was 9400 nM. For the compound `CC(C)(NC(=O)CCCn1ccc(=O)[nH]c1=O)c1ccccc1`, the IC50 in assay [1] is > 30000 nM.

As for `O=C(CCCn1ccc(=O)[nH]c1=O)NCC(c1ccccc1)c1ccccc1`, half-maximal inhibition in assay [1] (IC50) was put at 16000 nM. Same read-out and setting: as for `CC(C)(C)CC(C)(C)NC(=O)CCn1ccc(=O)[nH]c1=O`, the figure is > 30000 nM.
